Measurements reported in ChEMBL document CHEMBL1201862, “PubChem BioAssay data set” (2004).
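In this assay, cells in 96-well plates receive the compound at five concentrations for 48 hours. Endpoints are linearly interpolated between the surrounding concentrations. GI50 is the concentration that inhibits growth by half.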 The source made the active and inactive calls. Rule as the data show it: active = GI50 up to about 1.1 µM and inactive = higher.

Columns and labels:
Experiment in all cases: NCI anticancer screen, dose series, 48 h
786-0 = tested on: 786-0
A498 = tested on: A498
A549 = tested on: A549
ACHN = tested on: ACHN
BT-549 = tested on: BT-549
CAKI-1 = tested on: CAKI-1
COLO 205 = tested on: COLO 205
DU-145 = tested on: DU-145
EKVX = tested on: EKVX
HCC 2998 = tested on: HCC 2998
HCT-116 = tested on: HCT-116
HCT-15 = tested on: HCT-15
HL-60 = tested on: HL-60
HOP-62 = tested on: HOP-62
HOP-92 = tested on: HOP-92
HT-29 = tested on: HT-29
Hs-578T = tested on: Hs-578T
IGROV-1 = tested on: IGROV-1
K562 = tested on: K562
LOX IMVI = tested on: LOX IMVI
M14 = tested on: M14
MCF7 = tested on: MCF7
MDA-MB-231 = tested on: MDA-MB-231
MDA-MB-435 = tested on: MDA-MB-435
MDA-N = tested on: MDA-N
MOLT-4 = tested on: MOLT-4
Malme-3M = tested on: Malme-3M
NCI-H226 = tested on: NCI-H226
NCI-H23 = tested on: NCI-H23
NCI-H460 = tested on: NCI-H460
NCI-H522 = tested on: NCI-H522
NCI/ADR-RES = tested on: NCI/ADR-RES
OVCAR-3 = tested on: OVCAR-3
OVCAR-4 = tested on: OVCAR-4
OVCAR-5 = tested on: OVCAR-5
OVCAR-8 = tested on: OVCAR-8
PC-3 = tested on: PC-3
RPMI-8226 = tested on: RPMI-8226
RXF 393 = tested on: RXF 393
SF-268 = tested on: SF-268
SF-295 = tested on: SF-295
SF-539 = tested on: SF-539
SK-MEL-28 = tested on: SK-MEL-28
SK-MEL-2 = tested on: SK-MEL-2
SK-MEL-5 = tested on: SK-MEL-5
SK-OV-3 = tested on: SK-OV-3
SN12C = tested on: SN12C
SNB-19 = tested on: SNB-19
SNB-75 = tested on: SNB-75
SR = tested on: SR
SW-620 = tested on: SW-620
T47D = tested on: T47D
TK-10 = tested on: TK-10
U-251 = tested on: U-251
UACC-257 = tested on: UACC-257
UO-31 = tested on: UO-31
CCRF-CEM = tested on: CCRF-CEM
KM12 = tested on: KM12
UACC-62 = tested on: UACC-62

Measured: GI50

CCCCCCCCCCCCOP(=O)(O)OCC(N)C(=O)O (stereo unspecified)
inactive: 786-0 30.2 µM | A498 24.6 µM | A549 24.7 µM | ACHN 34.1 µM | BT-549 21.2 µM | CAKI-1 30.1 µM | COLO 205 > 100 µM | DU-145 83.4 µM | EKVX 69.8 µM | HCC 2998 29.8 µM | HCT-116 12.1 µM | HL-60 17.4 µM | HOP-62 15.4 µM | HOP-92 20.5 µM | HT-29 43.3 µM | Hs-578T 10.3 µM | IGROV-1 35.6 µM | K562 29.5 µM | LOX IMVI 20.4 µM | M14 68.1 µM | MCF7 39.3 µM | MDA-MB-231 23.9 µM | MDA-MB-435 18.2 µM | MDA-N 21.2 µM | MOLT-4 11.2 µM | Malme-3M > 100 µM | NCI-H226 19.7 µM | NCI-H23 29.9 µM | NCI-H460 13.6 µM | NCI-H522 31.8 µM | NCI/ADR-RES 36.3 µM | OVCAR-3 17.3 µM | OVCAR-4 39 µM | OVCAR-5 40.8 µM | OVCAR-8 38.5 µM | PC-3 15.3 µM | RPMI-8226 24.7 µM | RXF 393 21 µM | SF-268 26.8 µM | SF-295 15.7 µM | SF-539 22.3 µM | SK-MEL-28 94.8 µM | SK-MEL-2 22.8 µM | SK-MEL-5 23.4 µM | SK-OV-3 17.1 µM | SN12C 22.1 µM | SNB-19 16.3 µM | SNB-75 18.5 µM | SR 22 µM | SW-620 44.4 µM | T47D > 100 µM | TK-10 24.7 µM | U-251 11.9 µM | UACC-257 37.2 µM | UO-31 15.5 µM
17 µM: HCT-15

COc1ccc(C(OCC2OC(n3cc(C)c(=O)[nH]c3=O)CC2n2cc(Cn3cc(Br)c(=O)[nH]c3=O)nn2)(c2ccccc2)c2ccccc2)cc1 (stereo unspecified)
> 100 µM: HCT-15
inactive: 786-0 > 100 µM | A498 > 100 µM | A549 > 100 µM | ACHN > 100 µM | BT-549 > 100 µM | CAKI-1 > 100 µM | CCRF-CEM 2.53 µM | COLO 205 > 100 µM | DU-145 > 100 µM | EKVX > 100 µM | HCC 2998 > 100 µM | HCT-116 > 100 µM | HL-60 2.07 µM | HOP-62 > 100 µM | HOP-92 > 100 µM | HT-29 > 100 µM | Hs-578T > 100 µM | IGROV-1 38.5 µM | KM12 50.9 µM | LOX IMVI > 100 µM | M14 > 100 µM | MCF7 16 µM | MDA-MB-231 > 100 µM | MDA-MB-435 6.55 µM | MDA-N 21 µM | MOLT-4 4.36 µM | Malme-3M > 100 µM | NCI-H226 > 100 µM | NCI-H23 > 100 µM | NCI-H522 > 100 µM | NCI/ADR-RES > 100 µM | OVCAR-3 > 100 µM | OVCAR-4 > 100 µM | OVCAR-5 > 100 µM | OVCAR-8 > 100 µM | PC-3 32.5 µM | RPMI-8226 5.05 µM | RXF 393 > 100 µM | SF-268 > 100 µM | SF-295 > 100 µM | SF-539 > 100 µM | SK-MEL-28 > 100 µM | SK-MEL-2 > 100 µM | SK-MEL-5 > 100 µM | SK-OV-3 > 100 µM | SN12C > 100 µM | SNB-19 > 100 µM | SNB-75 > 100 µM | SR > 100 µM | SW-620 > 100 µM | T47D > 100 µM | TK-10 > 100 µM | U-251 66.5 µM | UACC-257 > 100 µM | UACC-62 > 100 µM | UO-31 > 100 µM

COc1ccc2nc3c(nc2c1)C(C)(C)C=C3c1ccc(Br)cc1
> 100 µM: HCT-15
inactive: 786-0 > 100 µM | A498 > 100 µM | A549 > 100 µM | ACHN > 100 µM | BT-549 > 100 µM | CAKI-1 > 100 µM | CCRF-CEM > 100 µM | COLO 205 > 100 µM | DU-145 > 100 µM | EKVX > 100 µM | HCC 2998 > 100 µM | HCT-116 > 100 µM | HL-60 > 100 µM | HOP-62 > 100 µM | HOP-92 32.5 µM | HT-29 > 100 µM | Hs-578T > 100 µM | IGROV-1 > 100 µM | K562 > 10 µM | KM12 > 100 µM | LOX IMVI > 100 µM | M14 > 100 µM | MCF7 > 100 µM | MDA-MB-231 > 100 µM | MDA-MB-435 > 100 µM | MDA-N > 100 µM | MOLT-4 > 100 µM | Malme-3M > 100 µM | NCI-H226 > 100 µM | NCI-H460 > 100 µM | NCI-H522 > 100 µM | NCI/ADR-RES > 100 µM | OVCAR-4 76.9 µM | OVCAR-5 > 100 µM | OVCAR-8 > 100 µM | PC-3 > 100 µM | RPMI-8226 > 100 µM | RXF 393 > 100 µM | SF-268 > 100 µM | SF-539 97.3 µM | SK-MEL-28 > 10 µM | SK-MEL-2 > 100 µM | SK-MEL-5 > 100 µM | SN12C > 100 µM | SNB-19 > 100 µM | SNB-75 87.7 µM | SR > 100 µM | SW-620 5.68 µM | T47D > 100 µM | TK-10 > 100 µM | U-251 97.9 µM | UACC-257 > 100 µM
